Source: article PMC8752837, “Structural basis of BAK activation in mitochondrial apoptosis initiation” (Nature Communications, 2022)

Experiments:
I81A(3) BAK = assay: Liposome permeabilization assay: BH3 peptide activation of I81A(3) BAK receptor; type: biochemical, human; details: 50 nM mutant BAK; Suppl. Fig. 4f
Protocol: We performed liposome permeabilization assays as previously described[43]-[46]. […] We mixed the lipid film in ANTS/DPX solution by vortexing and sonication (~15 min) followed by extrusion through polycarbonate membrane of 2 μm pore size (Avanti Polar lipids) to generate homogenous large unilamellar vesicles (LUVs). We separated LUVs from free ANTS/DPX by S500 size exclusion chromatography and stored them at 4 °C in the dark. We prepared peptide and protein dilutions in 96-well black flat bottom plates (Costar) kept on ice. […] We quantified liposome permabilization by integrating area under curve (AUC) of normalized traces based on the Simpson's equation, and analyzed that data in Excel and GraphPad Prism. AUC measurements reflect the kinetic and extent of liposome permeabilization and provide quantitative means for comparison between different experimental conditions (e.g., BAK mutants with gross or partial variation in activity). Variability in permeabilization of different liposomes is common and our analyses compare among conditions investigated with the same liposomes. Although the absolute permeabilization values may differ, the trends for the same conditions are always very similar between different liposomes.

I81R(3) BAK = biological target: T1, I81R(3) BAK (Homo sapiens, UniProt Q16611, I81R); assay: Liposome permeabilization assay: BH3 peptide activation of I81R(3) BAK receptor; type: biochemical; details: 50 nM mutant BAK; Suppl. Fig. 4f
T1 construct: C-terminus truncated recombinant human BAK containing C-terminal 6× histidine tag (MEAS-BAK); made in house; host or cells: E. coli T7 Express pLac I/Y
T1 sequence (Q16611 1-186 I81R limits assumed): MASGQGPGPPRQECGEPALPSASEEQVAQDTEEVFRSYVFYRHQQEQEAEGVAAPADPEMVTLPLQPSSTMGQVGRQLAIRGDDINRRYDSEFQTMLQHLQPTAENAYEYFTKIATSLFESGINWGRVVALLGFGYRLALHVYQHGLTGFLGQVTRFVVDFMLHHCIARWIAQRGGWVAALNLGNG
Protocol: We next compared activation of mutant BAK receptors by WT BID BH3 and WT BAK BH3 peptide ligands. At concentrations above 1 µM, both peptide ligands would activate WT or V74A(1) BAK (Supplementary Figs. 3e, 4d, e, and Supplementary Table 1).
We performed liposome permeabilization assays as previously described[43]–[46]. […] (nickel salt) [DGS NTA(Ni), 2.5 μM final concentration in each assay] (Avanti Polar Lipids). We prepared 12.5 mM fluorophore; 8-aminonaphthalene-1, 3, 6-trisulfonic acid, disodium salt (ANTS) and 45 mM quencher; p-xylene-bis-pyridiniumbromide (DPX) in LUV buffer (10 mM HEPES pH 6.8, 200 mM KCl and 5 mM MgCl2). We mixed the lipid film in ANTS/DPX solution by vortexing and sonication (~15 min) followed by extrusion through polycarbonate membrane of 2 μm pore size (Avanti Polar lipids) to generate homogenous large unilamellar vesicles (LUVs). We separated LUVs from free ANTS/DPX by S500 size exclusion chromatography and stored them at 4 °C in the dark. We prepared peptide and protein dilutions in 96-well black flat bottom plates (Costar) kept on ice. ANTS release from permeabilized liposomes causes an increase in fluorescence, which we monitored at 37 °C for 90 min using a CLARIOSTAR microplate reader (BMG Labtech) set at excitation and emission wavelengths of 360 and 530 nm, respectively. We normalized the data relative to maximum and minimum fluorescence induced by 3% CHAPS and buffer controls, respectively. We quantified liposome permabilization by integrating area under curve (AUC) of normalized traces based on the Simpson’s equation, and analyzed that data in Excel and GraphPad Prism. AUC measurements reflect the kinetic and extent of liposome permeabilization and provide quantitative means for comparison between different experimental conditions (e.g., BAK mutants with gross or partial variation in activity). Variability in permeabilization of different liposomes is common and our analyses compare among conditions investigated with the same liposomes. […]

CC[C@H](C)[C@H](NC(=O)[C@H](C)NC(=O)[C@H](CC(C)C)NC(=O)[C@H](CCC(N)=O)NC(=O)[C@H](CCCNC(=N)N)NC(=O)CNC(=O)[C@@H](NC(=O)[C@H](CCC(N)=O)NC(=O)CNC(=O)[C@H](CCSC)NC(=O)[C@@H](NC(=O)[C@H](CO)NC(=O)[C@H](CO)NC(C)=O)[C@@H](C)O)C(C)C)C(=O)N[C@H](C(=O)NCC(=O)N[C@@H](CC(=O)O)C(=O)N[C@@H](CC(=O)O)C(=O)N[C@H](C(=O)N[C@@H](CC(N)=O)C(=O)N[C@@H](CCCNC(=N)N)C(=O)N[C@@H](CCCNC(=N)N)C(=O)N[C@@H](Cc1ccc(O)cc1)C(N)=O)[C@@H](C)CC)[C@@H](C)CC [WT BAK BH3]
liposome permeabilization by 50 nM I81A(3) BAK receptor (I81A(3) BAK): neither peptide ligands could promote liposome permeabilization | liposome permeabilization by 50 nM I81R(3) BAK receptor (I81R(3) BAK): neither peptide ligands could promote liposome permeabilization

CC[C@H](C)[C@H](NC(=O)[C@H](CO)NC(=O)[C@H](CCCNC(=N)N)NC(=O)[C@H](CC(=O)O)NC(=O)[C@H](CCSC)NC(=O)[C@H](CO)NC(=O)[C@H](CC(=O)O)NC(=O)CNC(=O)[C@@H](NC(=O)[C@H](CCC(N)=O)NC(=O)[C@H](C)NC(=O)[C@H](CC(C)C)NC(=O)[C@H](Cc1c[nH]cn1)NC(=O)[C@H](CCCNC(=N)N)NC(=O)[C@H](C)NC(=O)[C@@H](NC(=O)[C@H](CC(N)=O)NC(=O)[C@H](CCCNC(=N)N)NC(=O)[C@@H](NC(=O)[C@@H](NC(=O)[C@H](CC(=O)O)NC(=O)[C@H](CCC(=O)O)NC(C)=O)[C@@H](C)CC)[C@@H](C)CC)[C@@H](C)CC)C(C)C)C(N)=O [WT BID BH3, reference compound]
liposome permeabilization by 50 nM I81A(3) BAK receptor (I81A(3) BAK): neither peptide ligands could promote liposome permeabilization | liposome permeabilization by 50 nM I81R(3) BAK receptor (I81R(3) BAK): neither peptide ligands could promote liposome permeabilization
